Measured values published in patent US20250161314A1, “METHOD FOR TREATMENT OR IMPROVEMENT OF NON-ALCOHOLIC FATTY LIVER DISEASE AND OBESITY BY LUMICHROME” (CATHAY GENERAL HOSPITAL, priority 2023, published 2025).
“Also recorded” adds a separate entry of the source.

What was measured:
Assay type in all cases: in vivo
C57BL/6 male mice [1] = assay: Serum blood biochemical values AST, ALT and LDH by dry chemistry auto analyzer; conditions: HFD mice
From the text: (§1) The serum was further analyzed by a dry chemistry auto analyzer (DRI-CHEM NX500i, Fujifilm, Tokyo, Japan) to measure the following blood biochemical values: AST, ALT and LDH. • (4) The mice in all groups were eventually sacrificed by excessive anesthesia, and both the epididymal fat and liver thereof were collected for a weight measurement, wherein the liver was divided into three parts, and a first part thereof, the first liver tissue, was further tested to determine the lipid amount in the liver by a lipid extraction kit (Chloroform-Free) (ab211044, Abeam, Cambridge, UK). • (5) A second part of the liver, the second liver tissue, was soaked in 4% formaldehyde (10% formalin) for frozen section, and the obtained liver tissue section was further subjected to (1) H/E staining and (2) Oil red O (ORO) staining for lipids (Bio-check laboratories, Taipei, Taiwan). • (6) A third part of the liver, the third liver tissue, was subjected to mRNA extraction, and the extracted mRNA was further subjected to quantitative polymerase chain reaction (qPCR). Further, (1) by qPCR with the primers of SEQ ID NO:1 and SEQ ID NO:2, the relative mRNA expression level of Acta2, which relates to liver fibrosis, in the liver in all groups was determined. (2) by qPCR with the primers of SEQ ID NO:3 and SEQ ID NO:4, the relative mRNA expression level of CD36, which affects fat uptake by liver cells, in all groups was determined; and (3) by qPCR with the primers of SEQ ID NO:5 and SEQ ID NO:6, the relative mRNA expression level of FABP1, which affects fat uptake by liver cells, in all groups was determined.
(§2) The present invention used a statistic and graphing software (prism ver. 6) for data analysis. The data of the numerical mean±standard deviation (SD) of the independent samples in all six groups were firstly obtained, and further subjected to One-way ANOVA for statistics. The post-hoc test was Tukey multiple comparison test. The differences between the groups were analyzed separately, and a p value less than 0.05 indicated a statistically significant difference.

CD36 = assay: qPCR relative mRNA expression level of CD36 in the liver; conditions: HFD mice
From the text: as §1, with “(2) by qPCR with the primers of SEQ ID NO:3 and SEQ ID NO:4, the relative mRNA expression level of CD36, which affects fat uptake by liver cells, in all groups was determined; and (3) by qPCR with the primers of SEQ ID NO:5 and SEQ ID NO:6, the relative mRNA expression level of FABP1, which affects fat uptake by liver cells, in all groups was determined.” left out

C57BL/6 male mice [2] = assay: Liver sections, H/E staining and Oil red O staining for lipid droplets; conditions: HFD mice, H/E and ORO staining
From the text: as §1, with “(2) by qPCR with the primers of SEQ ID NO:3 and SEQ ID NO:4, the relative mRNA expression level of CD36, which affects fat uptake by liver cells, in all groups was determined; and (3) by qPCR with the primers of SEQ ID NO:5 and SEQ ID NO:6, the relative mRNA expression level of FABP1, which affects fat uptake by liver cells, in all groups was determined.” left out

C57BL/6 male mice [3] = assay: Body size and liver appearance of mice after high-fat diet and lumichrome; conditions: HFD mice; for liver appearance (fatty liver): from 21th week of 32 weeks
From the text: as §1

FABP1 = assay: qPCR relative mRNA expression level of FABP1 in the liver; conditions: HFD mice
From the text: as §1, with “(2) by qPCR with the primers of SEQ ID NO:3 and SEQ ID NO:4, the relative mRNA expression level of CD36, which affects fat uptake by liver cells, in all groups was determined; and (3) by qPCR with the primers of SEQ ID NO:5 and SEQ ID NO:6, the relative mRNA expression level of FABP1, which affects fat uptake by liver cells, in all groups was determined.” left out

C57BL/6 male mice [4] = assay: Grip strength test by grip strength meter; conditions: lumichrome 0.8 or 4 mg/kg/day oral gavage
C57BL/6 male mice [5] = assay: Weekly weight measurement (weight gain) of high-fat diet mice; conditions: HFD mice, 12 weeks
Acta2 = assay: qPCR relative mRNA expression level of Acta2 in the liver; conditions: HFD mice
From the text: as §1, with “(2) by qPCR with the primers of SEQ ID NO:3 and SEQ ID NO:4, the relative mRNA expression level of CD36, which affects fat uptake by liver cells, in all groups was determined; and (3) by qPCR with the primers of SEQ ID NO:5 and SEQ ID NO:6, the relative mRNA expression level of FABP1, which affects fat uptake by liver cells, in all groups was determined.” left out

C57BL/6 male mice [6] = assay: Epididymal fat weight, liver weight and lipid amount in the liver; conditions: HFD mice
From the text: as §1, §2

[7] = lumichrome high dose 4 mg/kg/day oral gavage
[8] = lumichrome low dose 0.8 mg/kg/day oral gavage
[9] = lumichrome high dose 4 mg/kg/day oral gavage, 4 mg/kg/day

Cc1cc2nc3[nH]c(=O)[nH]c(=O)c3nc2cc1C [lumichrome]
ALT in the serum (C57BL/6 male mice [1]; [7]): lower than those of the High-fat diet group
AST in the serum (C57BL/6 male mice [1]; [7]): lower than those of the High-fat diet group
LDH in the serum (C57BL/6 male mice [1]; [7]): lower than those of the High-fat diet group
ALT in the serum (C57BL/6 male mice [1]; [8]): lower than those of the High-fat diet group
AST in the serum (C57BL/6 male mice [1]; [8]): lower than those of the High-fat diet group
LDH in the serum (C57BL/6 male mice [1]; [8]): lower than those of the High-fat diet group
relative mRNA expression level of CD36 in the liver (CD36; [7]): less mRNA expression of CD36 and FABP1 than that of the High-fat diet group
relative mRNA expression level of CD36 in the liver (CD36; [8]): less mRNA expression of CD36 and FABP1 than that of the High-fat diet group
lipid droplets size and accumulation in the liver (C57BL/6 male mice [2]; [9]): smaller lipid droplets and less lipid droplets accumulation than those of the High-fat diet group; also recorded: significantly better than that in the HFD-lumichrome in low dose group
lipid droplets size and accumulation in the liver (C57BL/6 male mice [2]; [8]): smaller lipid droplets and less lipid droplets accumulation than those of the High-fat diet group
body size of mice (C57BL/6 male mice [3]; [7]): more obvious efficacy to ameliorate the body size increase of mice
liver appearance (fatty liver) (C57BL/6 male mice [3]; [7]): improve the appearance of a fatty liver to regain a blood red color
body size of mice (C57BL/6 male mice [3]; [8]): inhibit the increase of the body size of mice
liver appearance (fatty liver) (C57BL/6 male mice [3]; [8]): improve the appearance of a fatty liver and regain a red color
relative mRNA expression level of FABP1 in the liver (FABP1; [7]): less mRNA expression of CD36 and FABP1 than that of the High-fat diet group
relative mRNA expression level of FABP1 in the liver (FABP1; [8]): less mRNA expression of CD36 and FABP1 than that of the High-fat diet group
grip strength (muscular endurance) (C57BL/6 male mice [4]; HFD mice): did not cause a decrease in muscular endurance of mice
grip strength (muscular endurance) (C57BL/6 male mice [4]; control diet mice): did not cause a decrease in muscular endurance of mice
weight gain (C57BL/6 male mice [5]; [9]): ameliorate weight gain increase of mice resulting from the high-fat diet; also recorded: no longer increased greatly at and after the fourth week after providing lumichrome
weight gain (C57BL/6 male mice [5]; [8]): ameliorate weight gain increase of mice resulting from the high-fat diet
relative mRNA expression level of Acta2 in the liver (Acta2; [7]): less mRNA expression of Acta2 than that of the High-fat diet group
relative mRNA expression level of Acta2 in the liver (Acta2; [8]): less mRNA expression of Acta2 than that of the High-fat diet group
epididymal fat weight (C57BL/6 male mice [6]; [7]): lower than those of the High-fat diet group
lipid amount in the liver (C57BL/6 male mice [6]; [7]): lower than those of the High-fat diet group
liver weight (C57BL/6 male mice [6]; [7]): lower than those of the High-fat diet group
epididymal fat weight (C57BL/6 male mice [6]; [8]): lower than those of the High-fat diet group
liver weight (C57BL/6 male mice [6]; [8]): lower than those of the High-fat diet group
